In patent publication US9072746B2, “Method for enhancing learning and memory impaired by neurodegenerative disorders and compounds and compositions for effecting the same” (The Board of Trustees of the Leland Stanford Junior …, priority 2010, dated 2015):
Entries after “also recorded” stand apart in the source; their conditions may differ.

Tests used:
Ts65Dn mice [1] = conditions: restoration of norepinephrine level; cited from earlier work
Ts65Dn mice [2] = conditions: restoration of norepinephrine level; cited from earlier work; remark: listed apart in the source
C57Bl/6J mice = assay: Contextual fear conditioning memory retrieval (FIG. 10A, B); assay type: in vivo; conditions: betaxolol 1 mg/kg, atenolol 3 mg/kg s.c.
Experimental: In all experiments xamoterol 3 mg/kg, atenolol 3 mg/kg, and betaxolol 1 mg/kg were injected subcutaneously. […] Results are shown as mean+SEM (ns=not significant, *=p<0.05, and **=p<0.01).

male Ts65Dn mice [3] = assay: T-maze spontaneous alternation; assay type: in vivo; conditions: betaxolol 1 mg/kg s.c. plus xamoterol 3 mg/kg s.c.
Excerpt: The T-maze had 3 equal arms (30 cm length, 10 cm width, and 20 cm height). The start arm and 2 goal arms had guillotine gates. This test was based on the rodents' preference to experience a new arm of the T-maze instead of a familiar one ([…], 1998). In each trial, the mouse was placed in the start arm. The gate was then opened and the mouse was able to freely explore the arms. As soon as the mouse entered one goal arm, the sliding gate of the other goal arm closed. The mouse eventually returned to the start arm and the next trial was started. In the next trial, the mouse may recognize the previously chosen goal arm and choose to explore a new arm rather than revisit the previously visited arm. This trial was repeated 11 times per day for 3 consecutive days, for a total of 33 trials. The maze was cleaned with 50% ethanol between trials to eliminate odor. Percent of alternation (number of turns in each goal arm) was used for analysis. This protocol has been described before by Belichenko et al. (2009) and is modified from a Deacon and Rawlins (2006) protocol (Deacon and Rawlins, 2006; Belichenko et al., 2009). […] In this part of the study, activity chamber and three cognitive tests, including T-maze spontaneous alternation, contextual fear conditioning (CFC), and novel object recognition were performed. In T-maze spontaneous alternation and contextual fear conditioning, both Ts65Dn and 2N male mice were divided into three treatment groups including normal saline (Vehicle), xamoterol, and betaxolol plus xamoterol groups. In the novel object recognition test, both Ts65Dn and 2N male mice were divided into two treatment groups, normal saline and xamoterol. The T-maze was performed exactly as previously described. […] On the first day (training day), animals were placed in the fear conditioning chamber, and after a 3-minute pre-shock period, they were exposed to 5 shocks (2 s, 0.5 mA,) with inter-trial intervals of 80 seconds and no tone. On the second day, the animals first received xamoterol, xamoterol plus betaxolol, or saline injection, and one hour later, they were placed in the same chamber for 5 minutes. Similar to the previous description of fear conditioning, freezing was defined as the complete lack of motion for a minimum of o.75 second. The Novel Object Recognition task is conducted in an open field arena (40 cm×40 cm). Mice were habituated in the testing room for 1 hour followed by 5 minutes habituation inside the arena without any objects. On 4th day animals were introduced 3 times to arena with 3 identical subjects for 10 minutes with 3 minutes inter trial intervals. On 5th day (24 hours after trainings) one of the objects replaced by a novel one and the time sniffing of each object were used for analysis. For testing the role of β1 adrenergic system, xamoterol and betaxolol (Tocris Bioscience, Ellisville, Mo.) were injected subcutaneously using 10 ml/kg normal saline as vehicle. Xamoterol, (3 mg/kg) was given one hour before testing and betaxolol (1 mg/kg) was given 30 minutes before testing.

male Ts65Dn mice [4] = assay: Contextual fear conditioning; assay type: in vivo; conditions: betaxolol 1 mg/kg s.c. plus xamoterol 3 mg/kg s.c.
Experimental: Contextual and Cued fear conditioning was conducted for evaluation of fear-dependent learning and retrieval in the study. The test was performed using chambers from Coulbourn Instruments (Whitehall, Pa.). On the first day, the animals were placed in a chamber (Context A) for 3 min for baseline recording, followed by 5 tone-shock pairings. The shock (0.5 mA, 2 sec) was delivered following the tone (70 dB, 2 kHz, 20 sec) in each conditional/unconditional stimulus pairing. On the second day a novel chamber (Context B; new room, new olfactory environment, texture of floor, blue plastic inserts for walls, extra source of blue light, and visual cues) was used for cued testing. Three tones without shocks were presented to animals during a 3 min testing period following a 3 min pre-tone period. On the last day of the experiment, the mice were placed in Context A for 5 min without any conditional and unconditional stimulus {modified from the method described by (Saxe et al., 2006)}. Freezing was defined as the complete lack of motion for a minimum of 0.75 second as measured by FreezeFrame software (Actimetrics, Evanston, Ill.). The percent of freezing in each period was reported. For the startle response control test, an acoustic startle reflex apparatus (Med Associates Inc., St. Albans, Vt.) was used. The subjects were acclimated to the animal holder in the startle box for a total of 15 min over 3 consecutive-days prior to the experiment. The animals were exposed to 25 different trials with 10-20 second randomly variable inter-trial intervals. Five different intensities of startle pulses, 0, 90, 100, 110, and 120 dB, were randomly used, and each animal was randomly exposed 5 times to each intensity of the startle pulse. The duration of each startle pulse was 40 ms and the peak amplitude of the startle response in each trial was recorded for analysis. The holding cage on the apparatus was cleaned with 10% alcohol between each animal. […] In this part of the study, activity chamber and three cognitive tests, including T-maze spontaneous alternation, contextual fear conditioning (CFC), and novel object recognition were performed. In T-maze spontaneous alternation and contextual fear conditioning, both Ts65Dn and 2N male mice were divided into three treatment groups including normal saline (Vehicle), xamoterol, and betaxolol plus xamoterol groups. In the novel object recognition test, both Ts65Dn and 2N male mice were divided into two treatment groups, normal saline and xamoterol. The T-maze was performed exactly as previously described. […] On the first day (training day), animals were placed in the fear conditioning chamber, and after a 3-minute pre-shock period, they were exposed to 5 shocks (2 s, 0.5 mA,) with inter-trial intervals of 80 seconds and no tone. On the second day, the animals first received xamoterol, xamoterol plus betaxolol, or saline injection, and one hour later, they were placed in the same chamber for 5 minutes. Similar to the previous description of fear conditioning, freezing was defined as the complete lack of motion for a minimum of o.75 second. The Novel Object Recognition task is conducted in an open field arena (40 cm×40 cm). Mice were habituated in the testing room for 1 hour followed by 5 minutes habituation inside the arena without any objects. On 4th day animals were introduced 3 times to arena with 3 identical subjects for 10 minutes with 3 minutes inter trial intervals. On 5th day (24 hours after trainings) one of the objects replaced by a novel one and the time sniffing of each object were used for analysis. For testing the role of β1 adrenergic system, xamoterol and betaxolol (Tocris Bioscience, Ellisville, Mo.) were injected subcutaneously using 10 ml/kg normal saline as vehicle. Xamoterol, (3 mg/kg) was given one hour before testing and betaxolol (1 mg/kg) was given 30 minutes before testing.

| SMILES | effect on hippocampal-mediated contextual deficit in fear conditioning (Ts65Dn mice [1]) | effect on nesting behavior (Ts65Dn mice [2]) | effect on memory retrieval of contextual fear conditioning (C57Bl/6J mice) | effect of betaxolol on xamoterol's rescue of spontaneous alternation (male Ts65Dn mice [3]) | effect of betaxolol on xamoterol's rescue of contextual fear conditioning (male Ts65Dn mice [4]) |
| --- | --- | --- | --- | --- | --- |
| N[C@H](C(=O)O)[C@H](O)c1ccc(O)c(O)c1 [L-DOPS, L-threo-3,4-dihydroxyphenylserine] | restored | restored |  |  |  |
| CC(C)NCC(O)COc1ccc(CC(N)=O)cc1 (stereo not drawn) [atenolol] |  |  | did not have such an effect |  |  |
| CC(C)NCC(O)COc1ccc(CCOCC2CC2)cc1 (stereo not drawn) [betaxolol] |  |  | impaired | completely reversed; also recorded: prevented or blocked; also recorded: blocked; also recorded: betaxolol prevents this effect | completely reversed; also recorded: prevents or blocks; also recorded: completely blocked; also recorded: betaxolol prevents this effect |
